In US8901295B2 (Institut National de la Sante et de la Recherche Medicale …, priority 2009, dated 2014):
pIC50: −log10 of the molar value. Read-outs that look alike come from different tables or passages of the source.

Tests used:
Assay type in all cases: biochemical
Cyclophilin D (CypD) = Cyclophilin D (CypD) (Homo sapiens, UniProt P30405, K175I); test: Cyclophilin PPIase enzymatic assay (chymotrypsin coupled), CypD
Procedure: The protein was expressed in E. coli strain BL21(DE3). Bacteria were grown in LB medium at 37° C. and induced during 2 h with isopropyl-β-D-thiogalactopyranoside (IPTG) around OD 0.8. Cells were lysed by sonication in a buffer consisting of 50 mM Tris at pH 7.5, 2 mM EDTA and 2 mM β-mercaptoethanol (buffer A). The lysate was centrifuged at 40000 g for 30 min. The supernatant was loaded on a Q-Sepharose and S-Sepharose columns in series equilibrated with buffer A. The S-Sepharose column was washed with equilibrium buffer and bound proteins were eluted with a linear gradient from 0 to 1M NaCl.
(§1) The reaction was initiated by adding 20 μL of 3.2 mM peptide substrate (Suc-Ala-Ala-cis-Pro-Phe-pNA) in LiCl/TFE solution with rapid inversion. […] The final concentration of LiCl in the assay was 20 mM; TFE was present at a concentration of 4% (v/v). Absorbance readings were collected every 1 s by spectrophotometer. The inhibition assays of compounds were performed in the same manner as mentioned above. A 5 μL aliquot of the compounds in DMSO was added to the cyclophilin solution in the assay buffer. The assay was started by the addition of the substrate. Cyclosporine A was used as control in all measurement. The percentage inhibition of cyclophilin PPiase activity were calculated from slopes and values obtained represent an average of at least two independent measurements.

Cyclophilin B (CypB) = Cyclophilin B (CypB) (Homo sapiens (Human), UniProt P23284); test: Cyclophilin PPIase enzymatic assay (chymotrypsin coupled), CypB; conditions: for Inhibition (%): activity test at 100 μM on CypB; for pIC50: CypB
Sequence of Cyclophilin B (CypB) (P23284 34-216): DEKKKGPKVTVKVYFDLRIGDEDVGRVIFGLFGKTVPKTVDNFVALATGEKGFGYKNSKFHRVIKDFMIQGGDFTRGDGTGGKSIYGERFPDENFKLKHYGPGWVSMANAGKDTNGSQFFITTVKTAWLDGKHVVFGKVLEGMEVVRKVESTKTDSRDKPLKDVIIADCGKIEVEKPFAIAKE
Procedure: (§2) Cyclophilin A, B protein carrying a hexahistidine tag (His-Tag) at the C-terminus, were expressed in Escherichia coli and purified. Briefly, cultures of C41(DE3) cells were grown at 37° C. for ˜1 h until the culture reached an optical density of 0.6 at 600 nm, and induced with 1 mM isopropyl β-D-thiogalactoside for 4 h at 37° C. or overnight at 22° C. for cylophilin A and cyclophilin B, respectively. Cell pellets (1 L) were resuspended in a lysis buffer (20 mM NaH2PO4 (pH 7.8), 300 mM NaCl, 7 mM β-mercaptoethanol, 1 mg/ml lysozyme, 0.1 U/μl Desoxyribonuclease and complete protease inhibitor tablets (Roche)). The sonicated cell lysates were clarified by centrifugation at 10 000 g for 45 min at 4° C., chromatographed on a Ni-NTA column and washed with buffer: (20 mM NaH2PO4 (pH7.8), 300 mM NaCl, 50 mM imidazole, 7 mM β-mercaptoethanol, 10% glycerol). The bound protein was eluted in 1 ml fractions with buffer: (20 mM NaH2PO4 (pH7.8), 300 mM NaCl, 250 mM imidazole, 7 mM β-mercaptoethanol, 10% glycerol) and monitored by the Bradford colorimetric assay. The purity of each cyclophilin was determined by Coomassie-stained SDS-PAGE analysis.
as §1

Cyclophilin A (CypA) = Cyclophilin A (CypA) (Homo sapiens (Human), UniProt P62937); test: Cyclophilin PPIase enzymatic assay (chymotrypsin coupled), CypA; conditions: for pIC50: CypA
Sequence of Cyclophilin A (CypA) (P62937 whole entry): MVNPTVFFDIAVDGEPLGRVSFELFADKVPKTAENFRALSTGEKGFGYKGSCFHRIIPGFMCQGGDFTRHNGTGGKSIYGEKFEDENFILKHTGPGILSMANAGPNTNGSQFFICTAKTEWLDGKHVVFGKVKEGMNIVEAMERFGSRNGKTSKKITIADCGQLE
Procedure: as §2, §1

[1] = activity test at 100 μM on CypA, read-out: Inhibition (%)
[2] = activity test at 100 μM on CypA

Sequence of Cyclophilin D (CypD) (P30405 30-207 K175I limits assumed): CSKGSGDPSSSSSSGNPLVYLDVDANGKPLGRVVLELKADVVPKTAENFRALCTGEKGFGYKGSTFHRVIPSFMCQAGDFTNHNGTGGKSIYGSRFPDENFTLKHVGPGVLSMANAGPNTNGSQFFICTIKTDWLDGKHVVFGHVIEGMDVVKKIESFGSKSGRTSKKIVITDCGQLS

Molecule | inhibition at 100 µM (Cyclophilin B (CypB)) [%] | inhibition at 100 µM (Cyclophilin A (CypA); [1]) [%] | further results
2-(3-(3-acetamidobenzyl)ureido)acetate [Compound F566] | – | – | Inhibition (%) (Cyclophilin D (CypD); activity test at 100 μM on CypD): 22.7%; Inhibition (%) (Cyclophilin B (CypB)): 26.5%
CCOC(=O)CNC(=O)NCc1ccc(OC)cc1 [Compound F429, ethyl 2-(3-(4-methoxybenzyl)ureido)acetate] | – | – | inhibition at 1000 µM (Cyclophilin D (CypD)): 42.1%
CCOC(=O)CNC(=O)NCC1CCNCC1 [Compound F509, ethyl 2-(3-(piperidin-4-ylmethyl)ureido)acetate] | – | – | inhibition at 100 µM (Cyclophilin D (CypD)): 18.3%
CCOC(=O)CNC(=O)NCc1cccc(F)c1 [Compound F511, ethyl 2-(3-(3-fluorobenzyl)ureido)acetate] | – | – | inhibition at 100 µM (Cyclophilin D (CypD)): 12.9%
CCOC(=O)CNC(=O)NCc1cccc(OC)c1 [Compound F512, ethyl 2-(3-(3-methoxybenzyl)ureido)acetate] | 16.6 | – | inhibition at 100 µM (Cyclophilin D (CypD)): 26.5%
Nc1ccc(CNC(=O)NCC(=O)N2CCCC2)cc1 [Compound F537, 1-(4-aminobenzyl)-3-(2-pyrrolidin-1-yl-2-oxoethyl)urea] | 24.5 | – | inhibition at 100 µM (Cyclophilin A (CypA)): 33.4%
CCOC(=O)CNC(=O)NCc1nc2ccccc2[nH]1 [Compound F538, ethyl 2-(3-((1H-benzo[d]imidazol-2-yl)methyl)ureido)acetate] | – | 15.5 | –
Nc1ccc(CNC(=O)NCC(=O)N2CCCC(O)C2)cc1 (centres unmarked) [Compound F540, 1-(4-aminobenzyl)-3-(2-(3-hydroxy-piperidin-1-yl)-2-oxoethyl)urea] | – | 32.6 | –
Nc1ccc(CNC(=O)NCC(=O)N2CCCCC2C(=O)N2CCCC2)cc1 (centres unmarked) [Compound F542] | – | – | Inhibition (%) (Cyclophilin A (CypA); [2]): 60.1%; pIC50 (Cyclophilin B (CypB)): 4.44; Inhibition (%) (Cyclophilin B (CypB)): 58.5%
Nc1ccc(CNC(=O)NCC(=O)N2CCCCC2)cc1 [Compound F543, 1-(4-aminobenzyl)-3-(2-oxo-2-(piperin-1-yl)ethyl)urea] | – | – | Inhibition (%) (Cyclophilin A (CypA); [2]): 27.7%; Inhibition (%) (Cyclophilin B (CypB)): 37.5%
Nc1ccc(CNC(=O)NCC(=O)N2CCOCC2)cc1 [Compound F544, 1-(4-aminobenzyl)-3-(2-morpholino-2-oxoethyl)urea] | 26 | 12.2 | –
CCOC(=O)C1CCCN(C(=O)CNC(=O)NCc2ccc(N)cc2)C1 (centres unmarked) [Compound F545, ethyl 1-(2-(3-(4-aminobenzyl)ureido)acetyl)piperidine-3-carboxylate] | 65.7 | 49.2 | pIC50 (Cyclophilin B (CypB)): 4.12
Nc1ccc(CNC(=O)NCC(=O)NCCc2ccccc2)cc1 [Compound F547, 2-(3-(4-aminobenzyl)ureido)-N-2-phenyl-ethylacetamide] | 15.2 | 22.5 | –
CCOC(=O)CNC(=O)NCc1ccc(O)c(O)c1 [Compound F548, ethyl 2-(3-(3,4-dihydroxybenzyl)ureido)acetate] | 20.8 | – | inhibition at 100 µM (Cyclophilin D (CypD)): 25.5%
CCOC(=O)CNC(=O)NCc1cccc(N)c1 [Compound F549, ethyl 2-(3-(3-aminobenzyl)ureido)acetate] | 48.9 | 14.8 | inhibition at 100 µM (Cyclophilin D (CypD)): 24.5%
COc1ccc(N(C)C(=O)CNC(=O)NCc2ccc(N)cc2)cc1 [Compound F555, 2-(3-(4-aminobenzyl)ureido)-N-4-methoxyphenyl-N-methylacetamide] | – | 65.1 | inhibition at 100 µM (Cyclophilin D (CypD)): 26.1%
CN(C(=O)CNC(=O)NCc1ccc(N)cc1)c1ccccc1 [Compound F557, 2-(3-(4-aminobenzyl)ureido)-N-phenyl-N-methylacetamide] | – | 63.4 | inhibition at 100 µM (Cyclophilin D (CypD)): 42.9%
Nc1ccc(CNC(=O)NCC(=O)N2CCCC2c2ccccn2)cn1 (centres unmarked) [Compound F586, 1-((6-aminopyridin-3-yl)methyl)-3-(2-oxo-2-(2-(pyridin-2-yl)pyrrolidin-1-yl)ethyl)urea] | 38.4 | – | –

Molecule | inhibition at 100 µM (Cyclophilin B (CypB)) [%] | inhibition at 100 µM (Cyclophilin A (CypA); [1]) [%] | further results
COc1ccccc1C1CCCN1C(=O)CNC(=O)NCc1ccc(N)nc1 (centres unmarked) [Compound F587, 1-((6-aminopyridin-3-yl)methyl)-3-(2-(2-(2-methoxyphenyl)pyrrolidin-1-yl)-2-oxoethyl)urea] | 99 | – | pIC50 (Cyclophilin B (CypB)): 5.28
CC(C)N(Cc1cccc2c1OCO2)C(=O)CNC(=O)NCc1ccc(N)nc1 [Compound F590, 1-(((6-aminopyridin-3-yl)methyl)ureido)-N-(benzo[d][1,3]dioxol-4-ylmethyl)-N-isopropylacetamide] | – | – | Inhibition (%) (Cyclophilin B (CypB)): 18.2%
CSc1cccc(CN(C(=O)CNC(=O)NCc2ccc(N)nc2)C(C)C)c1 [Compound F592, 2-(3-((6-aminopyridin-3-yl)methyl)ureido)-N-isopropyl-N-(3-(methylthio)benzyl)acetamide] | 18.9 | – | –
Cc1noc(C2CCCN2C(=O)CNC(=O)NCc2ccc(N)nc2)n1 (centres unmarked) [Compound F593, 1-((6-aminopyridin-3-yl)methyl)-3-(2-(2-(3-methyl-1,2,4-oxadiazol-5-yl)pyrrolidin-1-yl)-2-oxoethyl)urea] | 23.4 | – | –
Nc1ccc(CNC(=O)NCC(=O)N2CCOCC2)cn1 [Compound F594] | – | – | Inhibition (%) (Cyclophilin B (CypB)): 37.0%
CN(C(=O)CNC(=O)NCc1ccc(N)nc1)C1CCCCC1 [Compound F595, 2-(3-((6-aminopyridin-3-yl)methyl)ureido)-N-cyclohexyl-N-methylacetamide] | 29.1 | – | –
Nc1ccc(CNC(=O)Nc2cnc3sccn3c2=O)cn1 [Compound F596, 1-((6-aminopyridin-3-yl)methyl)-3-(5-oxo-5H-thiazolo[3,2-c]pyrimidin-6-yl)urea] | – | – | Inhibition (%) (Cyclophilin B (CypB)): 19.8%
CN(C(=O)CNC(=O)NCc1ccc(N)nc1)c1ccc(F)cc1 [Compound F597, 2-(3-((6-aminopyridin-3-yl)methyl)ureido)-N-(4-fluorophenyl)-N-methylacetamide] | 46.3 | – | –
CCN(OCc1ccccc1)C(=O)CNC(=O)NCc1ccc(N)nc1 [Compound F599, 2-(3-((6-aminopyridin-3-yl)methyl)ureido)-N-(benzyloxy)-N-ethylacetamide] | 71.8 | – | –
Nc1ccc(CNC(=O)Nn2cnc3ccccc3c2=O)cc1 [Compound F600, 1-(4-aminobenzyl)-3-(4-oxoquinazolin-3(4H)-yl)urea] | 65.8 | – | –
CCN(O)C(=O)CNC(=O)NCc1ccc(N)nc1 [Compound F606, 2-(3-((6-aminopyridin-3-yl)methyl)ureido)-N-hydroxy-N-ethylacetamide] | 17.3 | 18.9 | –
Nc1ccc(CNC(=O)Nc2cnc3sccn3c2=O)cc1 [Compound F608, 1-(4-aminobenzyl)-3-(5-oxo-5H-thiazolo[3,2-a]pyrimidin-6-yl)urea] | 38.7 | 26.3 | –
CCOC(=O)C(Cc1cccc(OCc2ccccc2)c1)NC(=O)NCc1ccc(N)cc1 (centres unmarked) [Compound F611, ethyl 2-(3-(4-aminobenzyl)ureido)-3-(3-(benzyloxy)phenyl)propanoate] | 73.3 | 72.8 | –
CCOC(=O)C(Cc1cccc(O)c1)NC(=O)NCc1ccc(N)cc1 (centres unmarked) [Compound F612, ethyl 2-(3-(4-aminobenzyl)ureido)-3-(3-hydroxyphenyl)propanoate] | 26.7 | 26.3 | –
Nc1ccc(CNC(=O)NCC(=O)N2CCCC2c2ccccc2Cl)cc1 (centres unmarked) [Compound F673, 1-(4-aminobenzyl)-3-(2-(2-(2-chlorophenyl)pyrrolidin-1-yl)-2-oxoethyl)urea] | – | – | pIC50 (Cyclophilin D (CypD)): 5.21; pIC50 (Cyclophilin A (CypA)): 5.47
CSc1ccccc1C1CCCN1C(=O)C(CC(C)C)NC(=O)NCc1ccc(N)cc1 (centres unmarked) [Compound F712, 1-(4-aminobenzyl)-3-(4-methyl-1-(2-(2-(methylthio)phenyl)pyrrolidin-1-yl)-1-oxopentan-2-yl)urea] | – | – | pIC50 (Cyclophilin D (CypD)): 5.52; pIC50 (Cyclophilin A (CypA)): 5.48
CSc1ccccc1C1CCCN1C(=O)C(C)NC(=O)NCc1ccc(N)cc1 (centres unmarked) [Compound F714, 1-(4-aminobenzyl)-3-(1-(2-(2-(methylthio)phenyl)pyrrolidin-1-yl)-1-oxopropan-2-yl)urea] | – | – | pIC50 (Cyclophilin D (CypD)): 5.96; pIC50 (Cyclophilin A (CypA)): 5.51
(S)-1-((6-aminopyridin-3-yl)methyl)-3-(2-oxo-2-(2-(pyridin-3-yl)pyrrolidin-1-yl)ethyl)urea [Compound F588] | – | – | Inhibition (%) (Cyclophilin B (CypB)): 23.2%
